Measured values as given in patent publication US20250326755A1, “CYCLIC QUATERNARY AMMONIUM SALT COMPOUND, AND PREPARATION METHOD THEREFOR AND USE THEREOF” (YICHANG HUMANWELL PHARMACEUTICAL CO., LTD., priority 2022, published 2025).
Structures can show the parent of a compound that is named as a salt. Where two headings read alike, the source gives them in different places.

Legend:
Type in all cases: in vivo, SD rats
[1] = tested on: rat subcutaneous infiltration model; test: Local anesthetic effect by subcutaneous infiltration, Von Frey needle stimulation of back skin
[2] = tested on: rat subcutaneous infiltration model; test: as above; remark: listed apart in the source
Method: After shaving and disinfecting the backs of SD rats (half male and half female) weighing 190-210 grams, a circle with a diameter of approximately 1.5 cm was drawn on one side of the exposed skin. 0.5 mL of a solution containing the drug was subcutaneously injected into the skin in the center. The solution, using physiological saline as the solvent, contained either 2 mg/ml bupivacaine hydrochloride or 1 mg/ml concentration of the compounds listed in Table 2 of the present application. Each group consisted of 10 rats. A Von Frey fiber with a 100-gram force was attached to a needle for local skin stimulation. One minute after drug administration, the rat's response to the stimulus was measured. Testing was conducted at 6 different points within the marked area of drug administration. Skin contraction, avoidance, and other behaviors following stimulation were observed and recorded. Three points in the center and three points around the circle were stimulated, and the number of skin contraction and avoidance behaviors was recorded as N6. […] Each compound was tested on 10 rats.

sciatic nerve of the rat = tested on: sciatic nerve of the rat
Method: The experimental methods described in the following test examples were standard procedures unless otherwise specified. All experimental animals used in the following test examples were SD rats purchased from Hunan Slac Jingda Experimental Animal Co., Ltd. Other test materials, unless stated otherwise, were purchased from conventional biochemical reagent suppliers.
The compounds listed in Table 1 and levobupivacaine hydrochloride (positive control) were administered to three groups of rats fully acclimated to the experimental environment, with one rat per group.
Solution Preparation: 2 mg/ml Levobupivacaine Hydrochloride Injection: 2.670 ml of 7.5 mg/ml levobupivacaine hydrochloride injection (Batch No. 92S0702) was pipetted into a 10 ml volumetric flask. 0.9% NaCl solution was added until the meniscus was level with the calibration line, and the solution was inverted and mixed thoroughly, to prepare 2 mg/ml levobupivacaine hydrochloride injection. 2 mg/ml Example Compound Solution: 6.6 mg of the example compound was accurately weighed and dissolved in 3.3 ml of 0.9% NaCl solution to prepare a 2 mg/ml example compound solution.
Both the positive control and the example compound were administered to each rat at 2 mg/ml, with an administration volume of 5 ml/kg, in a single injection near the sciatic nerve of the rat. After the administration, the rat was placed on a preheated hot plate (50±0.1° C.) of an intelligent hot plate instrument. […] The maximum thermal latency was controlled at 60 s. […] Any urine or feces on the hot plate was promptly cleaned and dried before subsequent tests.
Thermal latency results were expressed as the maximum proportional effect (MPE), calculated using the following formula.
Wherein: B represented the basal thermal latency of the rats; P was the maximum thermal latency C was the observed thermal latency at the detection time point.
Measurements were considered invalid if the MPE was less than 50% of the maximum proportional effect. If two consecutive measurements yielded an MPE of less than […], the experiment was terminated.

[3] = 1 mg/ml, 0.5 mL subcutaneous injection on the back, 10 rats
[4] = 2 mg/ml, 5 ml/kg, single injection near the sciatic nerve of the rat, hot plate 50±0.1° C.

| Compound | Duration/h ([1]; Drug Concentration 0.3 mmol/L) | Duration/h ([1]; Drug Concentration 1 mmol/L) | Duration/h [2, 3] | Onset Time/min [2, 3] | Onset Time/min (sciatic nerve of the rat; [4]) | Duration/h (sciatic nerve of the rat; [4]) | Duration/h (sciatic nerve of the rat; rat, in vivo) | Onset Time/min (sciatic nerve of the rat; rat, in vivo) | Duration/h ([2]; Drug Concentration 6.9 mmol/L, subcutaneous infiltration) | Duration/h ([2]; control at 2 mg/ml (6.9 mmol/L), 0.5 mL subcutaneous injection on the back) |
| --- | --- | --- | --- | --- | --- | --- | --- | --- | --- | --- |
| CCCC[N+]1(CCCCNc2ccc(F)cc2)CCCC[C@H]1C(=O)Nc1c(C)cccc1C (stereo partly drawn) [Compound of Example 3, (2S)-1-Butyl-2-((2,6-dimethylphenyl)carbamoyl)-1-(4-(p-fluorophenylamino)butyl)piperidine bromide] | 24 to 48 h | 48 to 72 h | 72 to 96 h | 1 min | 1 min | – | – | – | – | – |
| CCCC[N+]1(CCCCOc2cccc(C)c2)CCCC[C@H]1C(=O)Nc1c(C)cccc1C (stereo partly drawn) [Compound of Example 5, (2S)-1-Butyl-2-((2,6-dimethylphenyl)carbamoyl)-1-(4-(m-tolyloxy)butyl)piperidine bromide] | 24 to 48 h | 48 to 72 h | 72 to 96 h | 1 min | 1 min | 48 to 72 h | – | – | – | – |
| CCCC[N+]1(CCCCOc2c(C)cc(C)cc2C)CCCC[C@H]1C(=O)Nc1c(C)cccc1C (stereo partly drawn) [Compound of Example 25, (2S)-1-Butyl-2-((2,6-dimethylphenyl)carbamoyl)-1-(4-(symmetricalmesityloxy)butyl)piperidine bromide] | 24 to 48 h | 48 to 72 h | 72 to 96 h | 1 min | 1 min | – | – | – | – | – |
| CCCC[N+]1(CCCCOc2ccccc2C)CCCC[C@H]1C(=O)Nc1c(C)cccc1C (stereo partly drawn) [Compound of Example 30, (2S)-1-Butyl-2-((2,6-dimethylphenyl)carbamoyl)-1-(4-(o-tolyloxy)butyl)piperidine bromide] | 24 to 48 h | 48 to 72 h | 72 to 96 h | 1 min | – | – | 72 to 96 h | 1 min | – | – |
| Cc1cccc(C)c1NC(=O)[C@@H]1CCCC[N+]1(CCCCOc1ccccc1)CC1CCCC1 (stereo partly drawn) [Compound of Example 36, (2S)-1-(Cyclopentylmethyl)-2-((2,6-dimethylphenyl)carbamoyl)-1-(4-phenoxybutyl)piperidine bromide] | – | – | 48 to 72 h | 1 min | 1 min | 30 to 48 h | – | – | – | – |
| Cc1cccc(C)c1NC(=O)[C@@H]1CCCC[N+]1(CCCCOc1ccccc1)CCCC(C)C (stereo partly drawn) [Compound of Example 38, (2S)-2-((2,6-Dimethylphenyl)carbamoyl)-1-(4-methylpentyl)-1-(4-phenoxybutyl)piperidine bromide] | – | – | 48 to 72 h | 1 min | – | – | 48 to 72 h | 1 min | – | – |
| CCCC[N+]1(CCCCOc2ccccc2)CCCC[C@H]1C(=O)Nc1ccc(F)cc1 (stereo partly drawn) [Compound of Example 39, (2S)-1-Butyl-2-((4-fluorophenyl)carbamoyl)-1-(4-phenoxybutyl)piperidine bromide] | 24 to 48 h | 48 to 72 h | 72 to 96 h | 1 min | – | – | 72 to 96 h | 1 min | – | – |
| CCCC[N+]1(CCCCOc2ccccc2)CCCC[C@H]1C(=O)Nc1c(Br)cccc1Br (stereo partly drawn) [Compound of Example 40, (2S)-1-Butyl-2-((2,6-dibromophenyl)carbamoyl)-1-(4-phenoxybutyl)piperidine bromide] | – | – | 48 to 72 h | 1 min | – | – | 32 to 48 h | 1 min | – | – |
| CCCC[N+]1(CCCCOc2cccc3c2OC(C)(C)C3)CCCC[C@H]1C(=O)Nc1c(C)cccc1C (stereo partly drawn) [Compound of Example 44, (2S)-1-Butyl-1-(4-((2,2-dimethyl-2,3-dihydrobenzofuran-7-yl)oxy)butyl)-2-((2,6-dimethylphenyl)carbamoyl)piperidine bromide] | – | – | 48 to 72 h | 1 min | 1 min | – | – | – | – | – |
| CCCCN1CCCC[C@H]1C(=O)Nc1c(C)cccc1C [Levobupivacaine Hydrochloride, reference compound] | – | – | – | – | – | 3 h | – | – | 3 h | 3 h |
| (2S)-1-Butyl-2-((4-fluorophenyl)carbamoyl)-1-(4-(m-tolyloxy)butyl)piperidine bromide [Compound of Example 22] | – | – | 48 to 72 h | 1 min | 1 min | 48 to 72 h | – | – | – | – |
